Laboratory results as given in patent publication US5914324A, “6-Hydroxy and 6-oxo-androstane derivatives active on the cardiovascular system and pharmaceutical compositions containing same” (Sigma-Tau Industrie Farmaceutiche Riunite S.p.A., priority 1996, dated 1999).
Counter-ions that a name gives are not always drawn.

How the values were obtained:
[1] = tested on: guinea pig left atrium; test: inotropic activity in vitro, electrically paced guinea pig left atrium; conditions: Cavia porcellus
[2] = acute toxicity mouse oral; conditions: in vivo
Text: Finally the compounds of the invention have a low toxicity when compared with standard cardiotonic steroids.

[3] = molecular target: T1, Na+,K+-ATPase (Canis lupus familiaris, UniProt P50997); test: displacement of the specific 3H-ouabain binding from the Na+,K+-ATPase receptor; conditions: displacement of specific 3H-ouabain binding, purified enzyme
T1 construct: Na^+,K^+ -ATPase receptor purified according to Jorghensen; from tissue
Text: (§1) To test the affinity for the receptor site of the Na^+,K^+ -ATPase and the inhibitory activity on the enzyme, the following tests were used: a) displacement of the specific 3H-ouabain binding from the Na^+,K^+ -ATPase receptor purified according to Jorghensen (Jorghensen P., BBA.

[4] = molecular target: T1, Na+,K+-ATPase; test: inhibition of the activity of the purified Na+,K+-ATPase (hydrolysis of 32P-ATP); type: biochemical; conditions: purified enzyme
Text: as §1

Structure (SMILES) | EC50 [1] [nM] | LD50 [2] [mg/kg] | EC50 [3] [nM] | IC50 [4] [nM]
CN(C)CCO/N=C1/CC[C@@]2(C)[C@H](C1)C(=O)C[C@@H]1[C@@H]2CC[C@]2(C)C(=O)CC[C@@H]12 [I-i, (Z)-3-(2-N,N-dimethylaminoethoxyimino)-5α-androstan-6,17-dione] | 7100 | > 1000 | 500 | 12000
C[C@]12CC[C@H](/C=N\OCCN)C[C@@H]1[C@@H](O)C[C@@H]1[C@@H]2CC[C@]2(C)[C@@H](O)CC[C@@H]12.O=C(O)C(=O)O [I-d, (Z)-3β-(2-aminoethoxyiminomethyl)-5α-androstan-6α,17β-diol oxalate] | 10500 | > 600 | 130 | 1600
CN(C)CCCO[C@H]1CC[C@@]2(C)[C@H](C1)C(=O)C[C@@H]1[C@@H]2CC[C@]2(C)C(=O)CC[C@@H]12 [I-m, 3β-(3-N,N-dimethylaminopropoxy)-5α-androstan-6,17-dione] | 20000 | > 1000 | 1300 | 50000
CN(C)CCO/N=C/C=C1\CC[C@@]2(C)[C@H](C1)[C@@H](O)C[C@@H]1[C@@H]2CC[C@]2(C)[C@@H](O)CC[C@@H]12 [I-f, (E)-3-[3-(2-N,N-dimethylaminoethoxyimino)(E)-propen-1-yl)-5α-androstan-6α,17β-diol] | 800 | 560 | 100 | 1000
CN(C)CCO/N=C\[C@H]1CC[C@@]2(C)[C@H](C1)[C@@H](O)C[C@@H]1[C@@H]2CC[C@]2(C)[C@@H](O)CC[C@@H]12 [I-e, (Z)-3β-(2-N,N-dimethylaminoethoxyiminomethyl)-5α-androstan-6α,17β-diol oxalate] | 5600 | > 600 | 160 | 2000
C[C@]12CCC(=NOCCN)C[C@@H]1C(=O)C[C@@H]1[C@@H]2CC[C@]2(C)C(=O)CC[C@@H]12 [I-h, (E,Z)-3-(2-aminoethoxyimino)-5α-androstan-6,17-dione emioxalate] | 600 | 520 | 20 | 300
CN(C)CCO/N=C/C=C1\CC[C@@]2(C)[C@H](C1)C(=O)C[C@@H]1[C@@H]2CC[C@]2(C)C(=O)CC[C@@H]12 [I-k, (E)-3-[3-(2-N,N-dimethylaminoethoxyimino)(E)-propen-1-yl)-5α-androstan-6,17-dione oxalate] | 12600 | > 600 | 320 | 3200
C[C@]12CCC(=NOCCN)C[C@@H]1[C@@H](O)C[C@@H]1[C@@H]2CC[C@]2(C)[C@@H](O)CC[C@@H]12 [I-a, (E,Z)-3-(2-aminoethoxyimino)-5α-androstan-6α,17β-diol oxalate] | 2500 | > 600 | 100 | 1600
C[C@H]1O[C@@H](O[C@H]2[C@@H](O)C[C@H](O[C@H]3[C@@H](O)C[C@H](O[C@H]4CC[C@@]5(C)[C@H](CC[C@@H]6[C@@H]5C[C@@H](O)[C@]5(C)[C@@H](C7=CC(=O)OC7)CC[C@]65O)C4)O[C@@H]3C)O[C@@H]2C)C[C@H](O)[C@@H]1O [Digoxin, reference compound] | 500 | 18 | – | –
